Measured values: patent US20250368628A1, “METHODS AND COMPOUNDS FOR MODULATING INHERITED GENETIC DISEASES” (Design Therapeutics, Inc., priority 2022, published 2025)

Experiments:
[1] = test system: Myotonic Dystrophy 1 affected patient fibroblasts (Coriel GM04602; 1600 CTG repeats); experiment: DM1 foci reduction assay (EC50 assay; CAG10-Cy3 FISH, foci per nucleus); type: cell-based; conditions: Homo sapiens, Fibroblast; DM1 patient fibroblasts, 48 h treatment, foci per nucleus; read-out: DM1 EC50, 48 h
Outline: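 GM04602 DM1 patient fibroblasts (1600 CTG repeats) seeded 24 h, then treated 48 h at 37 °C with an 8-point 1:3 dose series from 3 μM. Cells PFA-fixed, ethanol-permeabilized and hybridized overnight with 5 nM CAG10-Cy3 probe, DAPI counterstained. Imaged at 20×, 4 fields per well, as average foci per nucleus.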

F35T cells = experiment: Foci reduction in FECD (CAG10-Cy3 FISH, foci per nucleus); type: cell-based; conditions: F35T cells, 48 h treatment, foci per nucleus; read-out: FECD EC50, 48 h
Outline: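 F35T cells, 5000 per well, were treated for 48 h at 37 °C, 5% CO2 in an 8-point dose response. Cells were then fixed in 4% PFA, permeabilized in 70% ethanol and hybridized overnight at 37 °C with a CAG10-Cy3 probe in 30% formamide/2×SSC. After DAPI staining, imaging gave foci per nucleus.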

Row | SMILES | EC50 [1] | EC50 (F35T cells)
1 | CCCCCNC(=O)c1nc(NC(=O)c2cc(NC(=O)CCNC(=O)c3nc(NC(=O)CCCNC(=O)c4cc(NC(=O)c5nc(NC(=O)CCNC(=O)c6cc(NC(=O)c7nccn7C)cn6C)cn5C)cn4CCCCCCNC(=O)CCOCCOCCOCCOCCOCCOC)cn3C)cn2C)cn1C [Compound B-236] | 100 to 500 nM | 100 to 500 nM
2 | COCCOCCOCCOCCOCCOCCC(=O)NCCCCCCn1cc(NC(=O)c2nc(NC(=O)CCNC(=O)c3cc(NC(=O)c4nccn4C)cn3C)cn2C)cc1C(=O)NCCCC(=O)Nc1cn(C)c(C(=O)NCCC(=O)Nc2cc(C(=O)Nc3cn(C)c(C(=O)NCCCN(C)CCCNC(=O)c4cccc(C(=O)O)c4)n3)n(C)c2)n1 [Compound B-237] | 500 to 1000 nM | 100 to 500 nM
3 | COCCOCCOCCOCCOCCOCCC(=O)NCCCCCCn1cc(NC(=O)c2nc(NC(=O)CCNC(=O)c3cc(NC(=O)c4nccn4C)cn3C)cn2C)cc1C(=O)NCCCC(=O)Nc1cn(C)c(C(=O)NCCC(=O)Nc2cc(C(=O)Nc3cn(C)c(C(=O)NCCC(=O)N4CCC(C#CC#CC5CCN(C(C)=O)CC5)CC4)n3)n(C)c2)n1 [Compound B-239] | 100 to 500 nM | 100 to 500 nM
4 | COCCOCCOCCOCCOCCOCCC(=O)NCCCCCCn1cc(NC(=O)c2nc(NC(=O)CCNC(=O)c3cc(NC(=O)c4nccn4C)cn3C)cn2C)cc1C(=O)NCCCC(=O)Nc1cn(C)c(C(=O)NCCC(=O)Nc2cc(C(=O)Nc3cn(C)c(C(=O)NCCC(=O)N4CCC(C#CC#CC5CCNCC5)CC4)n3)n(C)c2)n1 [Compound B-240] | 100 to 500 nM | < 100 nM
5 | COCCOCCOCCOCCN(CCCNC(=O)CCNC(=O)c1nc(NC(=O)c2cc(NC(=O)CCNC(=O)c3nc(NC(=O)CCCNC(=O)c4cc(NC(=O)c5nc(NC(=O)CCNC(=O)c6cc(NC(=O)c7nccn7C)cn6C)cn5C)cn4C)cn3C)cn2C)cn1C)CCOCCOCCOCCOC [Compound B-241] | 100 to 500 nM | 100 to 500 nM
6 | Cn1cc(NC(=O)c2nc(NC(=O)CCNC(=O)c3cc(NC(=O)c4nccn4C)cn3C)cn2C)cc1C(=O)NCCCC(=O)Nc1cn(C)c(C(=O)NCCC(=O)Nc2cc(C(=O)Nc3cn(C)c(C(=O)NCC#Cc4ccccc4)n3)n(C)c2)n1 [Compound B-245] | < 100 nM | < 100 nM
7 | Cn1cc(NC(=O)c2nc(NC(=O)CCNC(=O)c3cc(NC(=O)c4nccn4C)cn3C)cn2C)cc1C(=O)NCCCC(=O)Nc1cn(C)c(C(=O)NCCC(=O)Nc2cc(C(=O)Nc3cn(C)c(C(=O)NCCCNCC#Cc4ccccc4)n3)n(C)c2)n1 [Compound B-247] | < 100 nM | < 100 nM
8 | Cn1cc(NC(=O)c2nc(NC(=O)CCNC(=O)c3cc(NC(=O)c4nccn4C)cn3C)cn2C)cc1C(=O)NCCCC(=O)Nc1cn(C)c(C(=O)NCCC(=O)Nc2cc(C(=O)Nc3cn(C)c(C(=O)NCCCNCC#Cc4cccc(C(=O)O)c4)n3)n(C)c2)n1 [Compound B-248] | 100 to 500 nM | < 100 nM
9 | Cn1cc(NC(=O)c2nc(NC(=O)CCNC(=O)c3cc(NC(=O)c4nccn4C)cn3C)cn2C)cc1C(=O)NCCCC(=O)Nc1cn(C)c(C(=O)NCCC(=O)Nc2cc(C(=O)Nc3cn(C)c(C(=O)NCCCNCC#Cc4ccc(C(=O)O)cc4)n3)n(C)c2)n1 [Compound B-249] | 100 to 500 nM | < 100 nM
10 | CC(=O)N1CCC(C#CC#CC2CCN(CCCNC(=O)c3nc(NC(=O)c4cc(NC(=O)CCNC(=O)c5nc(NC(=O)CCCNC(=O)c6cc(NC(=O)c7nc(NC(=O)CCNC(=O)c8cc(NC(=O)c9nccn9C)cn8C)cn7C)cn6C)cn5C)cn4C)cn3C)CC2)CC1 [Compound B-251] | < 100 nM | < 100 nM
11 | CN(CCCNC(=O)c1cccc(C(=O)O)c1)CCCNC(=O)c1cc(NC(=O)CCNC(=O)c2nc(NC(=O)CCCNC(=O)c3cc(NC(=O)c4nc(NC(=O)CCNC(=O)c5cc(NC(=O)c6nccn6C)cn5C)cn4C)cn3CCCCCCN=[N+]=[N-])cn2C)cn1C [Compound B-253] | > 1000 nM | > 1000 nM
12 | Cn1cc(NC(=O)c2nccn2C)cc1C(=O)NCCC(=O)Nc1cn(C)c(C(=O)Nc2cc(C(=O)NCCCC(=O)Nc3cn(C)c(C(=O)NCCC(=O)Nc4cc(C(=O)Nc5cn(C)c(C(=O)NCCC(=O)N6CCC(C#CC#CC7CCNCC7)CC6)n5)n(C)c4)n3)n(CCCCCCN)c2)n1 [Compound B-256] | 100 to 500 nM | 100 to 500 nM
